Experimental data as given in patent US12077503B2, “Substituted cyclic amides and their use as herbicides” (FMC CORPORATION, priority 2015, dated 2024).

Experiments:
Type in all cases: in vivo
[1] = tested on: redroot pigweed (Amaranthus retroflexus); assay: Test G Pre-Emergence Protocol; conditions: Amaranthus retroflexus, pre-emergence, 312 h, evaluated after 13 days; for pest or weed control at 15.625 g/ha: 15.625 g ai/ha; for pest or weed control at 15.625 g/ha / pest or weed control at 250 g/ha: read-out: Pigweed, Redroot damage rating (100=total damage to plant; 0=no damage to plant); for pest or weed control at 62.5 g/ha: 62.5 g ai/ha, 100=total damage to plant, 0=no damage to plant, read-out: Pigweed, Redroot damage rating; for pest or weed control at 250 g/ha: 250 g ai/ha
Outline: (§1)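 Glasshouse pre-emergence test: soil-sown seeds, sprayed after 1 d at 15.625, 62.5 or 250 g/ha. Conditions 24/16° C day/night, 14 h light, 65% humidity, watering twice daily. Rating 13 d post-spray (100 = total damage).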

[2] = tested on: barnyardgrass (Echinochloa crus-galli); assay: Test G Pre-Emergence Protocol; conditions: Echinochloa crus-galli, pre-emergence, 312 h, evaluated after 13 days; for pest or weed control at 15.625 g/ha: 15.625 g ai/ha; for pest or weed control at 15.625 g/ha / pest or weed control at 250 g/ha: read-out: Barnyardgrass damage rating (100=total damage to plant; 0=no damage to plant); for pest or weed control at 62.5 g/ha: 62.5 g ai/ha, 100=total damage to plant, 0=no damage to plant, read-out: Barnyardgrass damage rating; for pest or weed control at 250 g/ha: 250 g ai/ha
Outline: as §1

[3] = tested on: ivy-leaved morning glory (Ipomoea hederacea); assay: Test G Pre-Emergence Protocol; conditions: Ipomoea, pre-emergence, 312 h, evaluated after 13 days; for pest or weed control at 15.625 g/ha: 15.625 g ai/ha; for pest or weed control at 15.625 g/ha / pest or weed control at 250 g/ha: read-out: Morningglory, Ivy-leaved damage rating (100=total damage to plant; 0=no damage to plant); for pest or weed control at 62.5 g/ha: 62.5 g ai/ha, 100=total damage to plant, 0=no damage to plant, read-out: Morningglory, Ivy-leaved damage rating; for pest or weed control at 250 g/ha: 250 g ai/ha
Outline: as §1

[4] = tested on: velvetleaf (Abutilon theophrasti); assay: Test G Pre-Emergence Protocol; conditions: Abutilon theophrasti, pre-emergence, 312 h, evaluated after 13 days; for pest or weed control at 15.625 g/ha: 15.625 g ai/ha; for pest or weed control at 15.625 g/ha / pest or weed control at 250 g/ha: read-out: Velvetleaf damage rating (100=total damage to plant; 0=no damage to plant); for pest or weed control at 62.5 g/ha: 62.5 g ai/ha, 100=total damage to plant, 0=no damage to plant, read-out: Velvetleaf damage rating; for pest or weed control at 250 g/ha: 250 g ai/ha
Outline: as §1

corn (Zea mays) [5] = assay: Test G Pre-Emergence Protocol; conditions: Zea mays, pre-emergence, 312 h, evaluated after 13 days; for plant injury at 15.625 g/ha: 15.625 g ai/ha; for plant injury at 15.625 g/ha / plant injury at 250 g/ha: read-out: Corn damage rating (100=total damage to plant; 0=no damage to plant); for plant injury at 62.5 g/ha: 62.5 g ai/ha, 100=total damage to plant, 0=no damage to plant, read-out: Corn damage rating; for plant injury at 250 g/ha: 250 g ai/ha
Outline: as §1

[6] = tested on: giant foxtail (Setaria faberi); assay: Test G Pre-Emergence Protocol; conditions: Setaria faberi, pre-emergence, 312 h, evaluated after 13 days; for pest or weed control at 15.625 g/ha: 15.625 g ai/ha; for pest or weed control at 15.625 g/ha / pest or weed control at 250 g/ha: read-out: Foxtail, Giant damage rating (100=total damage to plant; 0=no damage to plant); for pest or weed control at 62.5 g/ha: 62.5 g ai/ha, 100=total damage to plant, 0=no damage to plant, read-out: Foxtail, Giant damage rating; for pest or weed control at 250 g/ha: 250 g ai/ha
Outline: as §1

[7] = tested on: redroot pigweed (Amaranthus retroflexus); assay: Test G Post-Emergence Protocol; conditions: Amaranthus retroflexus, post-emergence, 312 h, read-out: Pigweed, Redroot damage rating; for pest or weed control at 15.625 g/ha: 15.625 g ai/ha, evaluated after 13 days (100=total damage to plant; 0=no damage to plant); for pest or weed control at 62.5 g/ha: 62.5 g ai/ha; for pest or weed control at 62.5 g/ha / pest or weed control at 250 g/ha: evaluated after 13 days, 100=total damage to plant, 0=no damage to plant; for pest or weed control at 250 g/ha: 250 g ai/ha
Outline: (§2)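 Seedlings grown 8 days in soil in a glasshouse (24/16 °C day/night, 14 h light, 65% humidity) were sprayed post-emergence with compound in acetone/water 50:50 plus 0.5% Tween 20 at 15.625, 62.5 or 250 g/ha. Damage was scored after 13 days on a 0–100 scale (100 = total damage).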

[8] = tested on: barnyardgrass (Echinochloa crus-galli); assay: Test G Post-Emergence Protocol; conditions: Echinochloa crus-galli, post-emergence, 312 h, read-out: Barnyardgrass damage rating; for pest or weed control at 15.625 g/ha: 15.625 g ai/ha, evaluated after 13 days (100=total damage to plant; 0=no damage to plant); for pest or weed control at 62.5 g/ha: 62.5 g ai/ha; for pest or weed control at 62.5 g/ha / pest or weed control at 250 g/ha: evaluated after 13 days, 100=total damage to plant, 0=no damage to plant; for pest or weed control at 250 g/ha: 250 g ai/ha
Outline: as §2

[9] = tested on: ivy-leaved morning glory (Ipomoea hederacea); assay: Test G Post-Emergence Protocol; conditions: Ipomoea, post-emergence, 312 h, read-out: Morningglory, Ivy-leaved damage rating; for pest or weed control at 15.625 g/ha: 15.625 g ai/ha, evaluated after 13 days (100=total damage to plant; 0=no damage to plant); for pest or weed control at 62.5 g/ha: 62.5 g ai/ha; for pest or weed control at 62.5 g/ha / pest or weed control at 250 g/ha: evaluated after 13 days, 100=total damage to plant, 0=no damage to plant; for pest or weed control at 250 g/ha: 250 g ai/ha
Outline: as §2

[10] = tested on: velvetleaf (Abutilon theophrasti); assay: Test G Post-Emergence Protocol; conditions: Abutilon theophrasti, post-emergence, 312 h, read-out: Velvetleaf damage rating; for pest or weed control at 15.625 g/ha: 15.625 g ai/ha, evaluated after 13 days (100=total damage to plant; 0=no damage to plant); for pest or weed control at 62.5 g/ha: 62.5 g ai/ha; for pest or weed control at 62.5 g/ha / pest or weed control at 250 g/ha: evaluated after 13 days, 100=total damage to plant, 0=no damage to plant; for pest or weed control at 250 g/ha: 250 g ai/ha
Outline: as §2

corn (Zea mays) [11] = assay: Test G Post-Emergence Protocol; conditions: Zea mays, post-emergence, 312 h, read-out: Corn damage rating; for plant injury at 15.625 g/ha: 15.625 g ai/ha, evaluated after 13 days (100=total damage to plant; 0=no damage to plant); for plant injury at 62.5 g/ha: 62.5 g ai/ha; for plant injury at 62.5 g/ha / plant injury at 250 g/ha: evaluated after 13 days, 100=total damage to plant, 0=no damage to plant; for plant injury at 250 g/ha: 250 g ai/ha
Outline: as §2

[12] = tested on: giant foxtail (Setaria faberi); assay: Test G Post-Emergence Protocol; conditions: Setaria faberi, post-emergence, 312 h, read-out: Foxtail, Giant damage rating; for pest or weed control at 15.625 g/ha: 15.625 g ai/ha, evaluated after 13 days (100=total damage to plant; 0=no damage to plant); for pest or weed control at 62.5 g/ha: 62.5 g ai/ha
Outline: as §2

[13] = evaluated after 13 days, 100=total damage to plant, 0=no damage to plant

CN1C[C@H](c2ccc(C(F)F)cc2)[C@@H](C(=O)Nc2cnccc2C(F)(F)F)C1=O (racemic) [Compound 1743]
pest or weed control at 15.625 g/ha [1]: 20%
pest or weed control at 62.5 g/ha [1]: 60%
pest or weed control at 250 g/ha [1]: 80%
pest or weed control at 15.625 g/ha [2]: 30%
pest or weed control at 62.5 g/ha [2]: 40%
pest or weed control at 250 g/ha [2]: 80%
pest or weed control at 15.625 g/ha [3]: 0%
pest or weed control at 62.5 g/ha [3]: 60%
pest or weed control at 250 g/ha [3]: 70%
pest or weed control at 15.625 g/ha [4]: 10%
pest or weed control at 62.5 g/ha [4]: 50%
pest or weed control at 250 g/ha [4]: 80%
plant injury at 15.625 g/ha (corn (Zea mays) [5]): 30%
plant injury at 62.5 g/ha (corn (Zea mays) [5]): 20%
plant injury at 250 g/ha (corn (Zea mays) [5]): 80%
pest or weed control at 15.625 g/ha [6]: 30%
pest or weed control at 62.5 g/ha [6]: 90%
pest or weed control at 250 g/ha [6]: 90%
pest or weed control at 15.625 g/ha [7]: 0%
pest or weed control at 62.5 g/ha [7]: 0%
pest or weed control at 250 g/ha [7]: 50%
pest or weed control at 15.625 g/ha [8]: 0%
pest or weed control at 62.5 g/ha [8]: 0%
pest or weed control at 250 g/ha [8]: 80%
pest or weed control at 15.625 g/ha [9]: 0%
pest or weed control at 62.5 g/ha [9]: 0%
pest or weed control at 250 g/ha [9]: 30%
pest or weed control at 15.625 g/ha [10]: 0%
pest or weed control at 62.5 g/ha [10]: 0%
pest or weed control at 250 g/ha [10]: 50%
plant injury at 15.625 g/ha (corn (Zea mays) [11]): 0%
plant injury at 62.5 g/ha (corn (Zea mays) [11]): 0%
plant injury at 250 g/ha (corn (Zea mays) [11]): 60%
pest or weed control at 15.625 g/ha [12]: 20%
pest or weed control at 62.5 g/ha [12, 13]: 70%

CN1C[C@H](c2cccc(C(F)(F)F)c2)[C@@H](C(=O)Nc2cnccc2S(C)(=O)=O)C1=O (racemic) [Compound 1747]
pest or weed control at 15.625 g/ha [1]: 0%
pest or weed control at 62.5 g/ha [1]: 10%
pest or weed control at 250 g/ha [1]: 10%
pest or weed control at 15.625 g/ha [2]: 0%
pest or weed control at 62.5 g/ha [2]: 0%
pest or weed control at 250 g/ha [2]: 80%
pest or weed control at 15.625 g/ha [3]: 0%
pest or weed control at 62.5 g/ha [3]: 0%
pest or weed control at 250 g/ha [3]: 0%
pest or weed control at 15.625 g/ha [4]: 0%
pest or weed control at 62.5 g/ha [4]: 0%
pest or weed control at 250 g/ha [4]: 0%
plant injury at 15.625 g/ha (corn (Zea mays) [5]): 0%
plant injury at 62.5 g/ha (corn (Zea mays) [5]): 0%
plant injury at 250 g/ha (corn (Zea mays) [5]): 0%
pest or weed control at 15.625 g/ha [6]: 0%
pest or weed control at 62.5 g/ha [6]: 10%
pest or weed control at 250 g/ha [6]: 70%
pest or weed control at 15.625 g/ha [7]: 10%
pest or weed control at 62.5 g/ha [7]: 20%
pest or weed control at 250 g/ha [7]: 20%
pest or weed control at 15.625 g/ha [8]: 0%
pest or weed control at 62.5 g/ha [8]: 60%
pest or weed control at 250 g/ha [8]: 80%
pest or weed control at 15.625 g/ha [9]: 0%
pest or weed control at 62.5 g/ha [9]: 20%
pest or weed control at 250 g/ha [9]: 50%
pest or weed control at 15.625 g/ha [10]: 0%
pest or weed control at 62.5 g/ha [10]: 0%
pest or weed control at 250 g/ha [10]: 10%
plant injury at 15.625 g/ha (corn (Zea mays) [11]): 0%
plant injury at 62.5 g/ha (corn (Zea mays) [11]): 0%
plant injury at 250 g/ha (corn (Zea mays) [11]): 30%
pest or weed control at 15.625 g/ha [12]: 10%
pest or weed control at 62.5 g/ha [12, 13]: 60%
pest or weed control at 250 g/ha ([12]; 250 g ai/ha, evaluated after 13 days, 100=total damage to plant, 0=no damage to plant): 80%
